The subject of data set [1] is human Factor XI mRNA. As to the kind of experiment: Antisense inhibition in HepG2 cells by microwalk gapmers, 8,000 nM, electroporation (Example 14). The class given is cell-based. The note with it: HepG2 cells, 8,000 nM. The essentials:
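HepG2 cells electroporated with 8,000 nM 2′-MOE phosphorothioate gapmer (5-10-5, 5-8-5 or 6-8-6). Factor XI mRNA measured after ~24 h by qRT-PCR, normalised to RIBOGREEN total RNA. Reported as percent inhibition versus untreated cells.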

On the set-up of data set [2]: species or system Sprague-Dawley rats. The note with it: rat, in vivo, sc, 20 mg/kg. As for the experimental part: The concentration of the full-length oligonucleotide as well as the total oligonucleotide concentration (including the degraded form) was measured. The method used is a modification of previously published methods (Leeds et al., 1996; Geary et al., 1999) which consist of a phenol-chloroform (liquid-liquid) extraction followed by a solid phase extraction. An internal standard (ISIS 355868, a 27-mer 2′-O-methoxyethyl modified phosphorothioate oligonucleotide, […], designated herein as SEQ ID NO: 270) was added prior to extraction. […] The results are presented in Tables 98 and 99, expressed as μg/g liver or kidney tissue.

Data set [3] relates to human Factor XI mRNA. As to the kind of experiment: Antisense inhibition in HepG2 cells by microwalk gapmers, 75 nM, lipofectin (Example 3). The class given is cell-based. The note with it: HepG2 cells, 75 nM, oligonucleotides targeted to nucleobases 1275 to 1318 of SEQ ID NO: 1. Summed up: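 HepG2 cells (10,000 per well) were transfected with 75 nM gapmer using lipofectin and treated for about 24 h. Factor XI mRNA was quantified by real-time PCR, normalized to RiboGreen total RNA and expressed as percent inhibition versus untreated controls.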

Data set [4] deals with IL-1β, IL-6, IFN-γ, TNF-α, IL-8, MIP-1α, MCP-1, MIP-10, RANTES. Description: Cynomolgus monkeys: cytokine and chemokine assays (Example 30). It counts as in vivo. As for the experimental part: (§1) Groups, each consisting of two male and two female monkeys, were injected subcutaneously with 25 mg/kg of ISIS 416850, ISIS 449709, ISIS 445522, ISIS 449710, ISIS 449707, ISIS 449711, ISIS 449708, 416858 and ISIS 445531. Antisense oligonucleotide was administered to the monkeys at 25 mg/kg three times per week for week 1 and 25 mg/kg twice per week for weeks 2 to 8. A control group, consisting of two male and two female monkeys was injected subcutaneously with PBS according to the same dosing regimen. Body weights were taken 14 days and 7 days before the start of treatment and were then measured weekly throughout the treatment period. Blood samples were collected 14 days and 5 days before the start of treatment and subsequently several times during the dosing regimen for measurement of various hematologic factors. On day 55, the monkeys were euthanized by exsanguination while under deep anesthesia, and organs harvested for further analysis.
Blood samples obtained from all monkey groups were sent to Pierce Biotechnology (Woburn, Mass.) for measurements of chemokine and cytokine levels. Levels of IL-1β, IL-6, IFN-γ, and TNF-α were measured using the respective primate antibodies and levels of IL-8, MIP-1α, MCP-1, MIP-10 and RANTES were measured using the respective cross-reacting human antibodies. Measurements were taken 14 days before the start of treatment and on day 55, when the monkeys were euthanized.

Data set [5] can be described thus: Tolerability in CD1 mice: body and organ weight (Example 25). The class given is in vivo. The note with it: 50 mg/kg s.c. twice per week for 6 weeks; for Kidney weight as percentage of body weight / Liver weight as percentage of body weight / Spleen weight as percentage of body weight: end of study.
For a further data set, the system named is Factor XI mRNA. Description: Cynomolgus monkeys, 25 mg/kg: liver Factor XI RNA analysis (Example 30). It counts as in vivo. The conditions noted are these: cynomolgus monkeys, day 55, in comparison to the PBS control. As for the experimental part: as §1
On day 55, RNA was extracted from liver tissue for real-time PCR analysis of Factor XI using primer probe set LTS00301. Results are presented as percent inhibition of Factor XI, relative to PBS control.

The subject of data set [6] is Factor XI protein. As to the kind of experiment: Cynomolgus monkeys: plasma Factor XI protein ELISA (Example 30). The conditions noted are these: cynomolgus monkeys, Example 30. It counts as in vivo. As for the experimental part: as §1
(§2) Plasma samples from all monkey groups taken on different days were analyzed by a sandwich-style ELISA assay (Affinity Biologicals Inc.) using an affinity-purified polyclonal anti-Factor XI antibody as the capture antibody and a peroxidase-conjugated polyclonal anti-Factor XI antibody as the detecting antibody. Monkey plasma was diluted 1:50 for the assay. Peroxidase activity was expressed by incubation with the substrate o-phenylenediamine. The color produced was quantified using a microplate reader at 490 nm and was considered to be proportional to the concentration of Factor XI in the samples.
The results are presented in Table 148, expressed as percentage reduction relative to that of the PBS control.
In general terms: ELISA stands for enzyme-linked immunosorbent assay.

Data set [7] can be described thus: Cynomolgus monkeys: body and organ weights (Example 29). It counts as in vivo. The conditions noted are these: for Body weight: escalating doses 5, 10, 25 mg/kg s.c. On the procedure:
(§3) Groups, each consisting of two male and three female monkeys, were injected subcutaneously with ISIS 416838, ISIS 416850, ISIS 416858, ISIS 416864, or ISIS 417002 in escalating doses. Antisense oligonucleotide was administered to the monkeys at 5 mg/kg three times per a week for week 1; 5 mg/kg twice per week for weeks 2 and 3; 10 mg/kg three times per week for week 4; 10 mg/kg twice per week for weeks 5 and 6; 25 mg/kg three times per week for week 7; and 25 mg/kg twice per week for weeks 8, 9, 10, 11, and 12. One control group, consisting of two male and three female monkeys, was injected subcutaneously with PBS according to the same dosing regimen. An additional experimental group, consisting of two male and three female monkeys, was injected subcutaneously with ISIS 416850 in a chronic, lower dose regimen. Antisense oligonucleotide was administered to the monkeys at 5 mg/kg three times per week for week 1; 5 mg/kg twice per week for week 2 and 3; 10 mg/kg three times per week for week 4; and 10 mg/kg twice per week for weeks 5 to 12. Body weights were measured weekly. Blood samples were collected 14 days and 5 days before the start of treatment and subsequently once per week for Factor XI protein activity analysis in plasma and measurement of various hematologic factors. On day 85, the monkeys were euthanized by exsanguination while under deep anesthesia, and organs harvested for further analysis.
Body weights were taken once weekly throughout the dosing regimen. […] Organ weights were taken after the animals were euthanized and livers, kidneys and spleens were harvested and weighed. […] The ISIS oligonucleotide, ISIS 416850, given with the chronic dose regimen is distinguished from the other oligonucleotides with an asterisk (*).

For data set [8], the system named is Factor XI protein. As to the kind of experiment: Cynomolgus monkeys: plasma Factor XI protein ELISA (Example 29). It counts as in vivo. The note with it: for Inhibition of Factor XI protein relative to the PBS control: escalating doses 5, 10, 25 mg/kg s.c. As for the experimental part: as §3, §2
The results are presented in Table 122, expressed as percentage reduction relative to that of the PBS control.

A short description of data set [9]: Cynomolgus monkeys: hematology assays (Example 29). It counts as in vivo. On the procedure: as §3
The ISIS oligonucleotide, ISIS 416850, given with the chronic dose regimen is distinguished from the other oligonucleotides with an asterisk (*).

[10] abbreviates: day −14 (before start of treatment).

In the oligonucleotide strings, read from the 5' end, every base follows the letter of its sugar. An asterisk marks phosphorothioate; unmarked linkages are phosphodiester. Other units and linkages are bracketed, terminal groups are in braces. A string of capitals states the bases alone. e = 2'-O-(2-methoxyethyl) (MOE); [5mC] = 5-methylcytosine; d = 2'-deoxy (DNA)

Consider four substances from patent publication US20120083522A1, “MODULATION OF INFLAMMATORY RESPONSES BY FACTOR XI” (Isis Pharmaceuitcals, inc., priority 2009, published 2012).

As to “416863 (antisense CAGCGGACGGCATTGGTGCA; 5-10-5 gapmer, wing sugar chemistry not given here, further chemistry not given here) [compound 416863]”, the “Percent inhibition of human Factor XI mRNA levels” value in the data set with human Factor XI mRNA [1] is listed as 86%. For the same substance, the “Half-life in the liver and kidney” value in [2] is 20 days. Further, in the data set with human Factor XI mRNA [3], the “% inhibition of human Factor XI mRNA levels” value came out at 83%.
With “ISIS 445531: microwalk gapmer of Table 51 (antisense eG*eG*e[5mC]*eA*eT*dT*dG*dG*dT*dG*d[5mC]*dA*d[5mC]*eA*eG*eT*eT*eT)”, in [4] (25 mg/kg s.c., day 55), the IL-1β level was determined as 155 pg/mL and the MIP-1β level is 84 pg/mL. Moreover, in [4] (setting [10]), the IL-1β level came out at 101 pg/mL and the MIP-1β level amounted to 22 pg/mL. In data set [5], the “Body weight (increase over PBS control weight before start of treatment)” value worked out at 10 g, the “Kidney weight as percentage of body weight” value came to 1.5%, the “Liver weight as percentage of body weight” value worked out at 6% and the “Spleen weight as percentage of body weight” value is listed as 0.5%. For the same substance, in the data set with Factor XI mRNA, the “Factor XI mRNA in liver (in words)” value was “significant reduction of Factor XI mRNA”.
In the case of “ISIS 445522: microwalk gapmer of Table 51 (antisense eG*e[5mC]*eA*e[5mC]*eA*dG*dT*dT*dT*d[5mC]*dT*dG*dG*e[5mC]*eA*eG*eG*e[5mC])”, in [4] (25 mg/kg s.c., day 55), the IL-1β level is 341 pg/mL and the MIP-1β level was found to be 63 pg/mL. Moreover, in [4] (setting [10]), the IL-1β level is given as 188 pg/mL and the MIP-1β level came out at 27 pg/mL. Further, in [5], the “Body weight (increase over PBS control weight before start of treatment)” value amounted to 11 g, the “Kidney weight as percentage of body weight” value is recorded as 1.7%, the “Liver weight as percentage of body weight” value is reported as 6% and the “Spleen weight as percentage of body weight” value is 0.4%. Besides, the “Factor XI mRNA in liver (in words)” value with Factor XI mRNA was “significant reduction of Factor XI mRNA”. In addition, the “Factor XI protein levels (in words)” value in the data set on Factor XI protein [6] is “time-dependent decrease in protein levels”.
In the case of “ISIS 416858: gapmer of Table 8 (antisense eA*e[5mC]*eG*eG*e[5mC]*dA*dT*dT*dG*dG*dT*dG*d[5mC]*dA*d[5mC]*eA*eG*eT*eT*eT)”, the IL-1β level in [4] (25 mg/kg s.c., day 55) was determined as 28 pg/mL; in data set [4] (setting [10]), 103 pg/mL. The MIP-1β level in data set [4] (25 mg/kg s.c., day 55) was determined as 47 pg/mL; in data set [4] (setting [10]) it was 37 pg/mL. Also, the “spleen weight (in words)” value in data set [7] (Example 29) is “increase in spleen weight”. The Kidney weight in data set [7] (after euthanasia) worked out at 13 g. Besides, the Liver weight in [7] (after euthanasia) is 60 g. Moreover, in data set [7] (after euthanasia), the Spleen weight turned out to be 12 g. For the same substance, the Body weight in [7] (day 1) was 2912 g; in data set [7] (day 8) it was 2740 g; in data set [7] (day 15), 2760 g; in data set [7] (day 22) it was 2800 g; in data set [7] (day 29) it was 2763 g; in data set [7] (day 36), 2584 g. The Body weight in data set [7] (day 43) was determined as 2607 g; in [7] (day 50) it was 2646 g; in [7] (day 57), 2617 g; in [7] (day 64) it was 2618 g; in [7] (day 71), 2865 g; in [7] (day 78) it was 2713 g. In addition, the “Factor XI protein levels (in words)” value in the data set with Factor XI protein [8] (Example 29) and with Factor XI protein [6] was “time-dependent decrease in protein levels” throughout. Besides, the “Inhibition of Factor XI protein relative to the PBS control” value with Factor XI protein [8] (day 8) was determined as 6%; in the data set with Factor XI protein [8] (day 15), 16%; in the data set on Factor XI protein [8] (day 22), 23%; in the data set on Factor XI protein [8] (day 29), 28%; with Factor XI protein [8] (day 36), 35%; in the data set on Factor XI protein [8] (day 43), 39%. Also, the “Inhibition of Factor XI protein relative to the PBS control” value stood at 49% in the data set on Factor XI protein [8] (day 50); 60% with Factor XI protein [8] (day 57); 68% in the data set with Factor XI protein [8] (day 64); 71% in the data set on Factor XI protein [8] (day 71); 73% with Factor XI protein [8] (day 78); 78% in the data set on Factor XI protein [8] (day 85). The “Inhibition of Factor XI protein relative to the PBS control” value in the data set with Factor XI protein [8] (day −5 (before treatment)) and in the data set on Factor XI protein [8] (day −14 (before treatment)) was 0% in each case. Besides, the “Factor XI mRNA in liver (in words)” value in the data set on Factor XI mRNA is recorded as “significant reduction of Factor XI mRNA”. Also, the platelet count in data set [9] (day 8) was found to be 391000 µL⁻¹; in [9] (day 15), 400000 µL⁻¹; in [9] (day 22), 316000 µL⁻¹; in [9] (day 29), 336000 µL⁻¹; in data set [9] (day 36) it was 371000 µL⁻¹; in data set [9] (day 43), 342000 µL⁻¹. Further, the platelet count in data set [9] (day 50) is 331000 µL⁻¹; in [9] (day 57), 333000 µL⁻¹; in data set [9] (day 64), 295000 µL⁻¹; in data set [9] (day 71) it was 286000 µL⁻¹; in data set [9] (day 78), 262000 µL⁻¹; in data set [9] (day 85), 267000 µL⁻¹. The platelet count in data set [9] (day −5) came out at 463000 µL⁻¹; in data set [9] (day −14), 419000 µL⁻¹.
